What was measured:
Assay in all cases: relative viability (nuclei count vs DMSO), 5 days (fraction); higher = more cells survive
AT-7519 + Phenformin = compound: O=C(NC1CCNCC1)c1n[nH]cc1NC(=O)c1c(Cl)cccc1Cl [AT-7519] + N=C(N)NC(=N)NCCc1ccccc1 [Phenformin] (partner 250 µM)
Summary of the method: (§1)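 Lung cancer cell lines were seeded in 1536-well plates and dosed by pin tool the next day, with either a single drug or a fixed anchor-drug dose combined with five library-drug doses (not always all listed) spaced in √10 steps. Five days later, one step fixed the cells and stained their nuclei (final 0.05% Triton X-100, 1% formaldehyde, 1 ug/ml Hoechst), and nuclei were counted on 4× images. Relative viability is the nuclei count in treated wells divided by the count in vehicle wells, and each value is the median of duplicate plates.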

AT-7519 = compound: O=C(NC1CCNCC1)c1n[nH]cc1NC(=O)c1c(Cl)cccc1Cl [AT-7519]
Summary of the method: (§2)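 A plate was accepted only when its control CV was below 25% and the cells had doubled at least once. Viability is defined from nuclear counts as treated wells divided by vehicle wells, with the median taken across plates. That median covers lung cancer cell lines grown in 1536-well plates, dosed by pinning at five √10-spaced library-drug concentrations, and counted in MetaXpress from 4× Hoechst images after 5 days.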

[1] = compound: C1=CC2=C(C=C(C(=C2N=C1)O)N=NC3=CC4=C(C=C3)C=C(C=C4)S(=O)(=O)O)S(=O)(=O)O
Summary of the method: as §2

[2] = compound: C1=CC2=C(C=C(C(=C2N=C1)O)N=NC3=CC4=C(C=C3)C=C(C=C4)S(=O)(=O)O)S(=O)(=O)O + CC1(C)CCC(c2ccc(Cl)cc2)=C(CN2CCN(c3ccc(C(=O)NS(=O)(=O)c4ccc(N[C@H](CCN5CCOCC5)CSc5ccccc5)c(S(=O)(=O)C(F)(F)F)c4)cc3)CC2)C1 [Navitoclax] (partner 0.5 µM)
Summary of the method: as §1

Cell Line	relative viability (AT-7519 + Phenformin; first compound 0.01 µM)	relative viability (AT-7519 + Phenformin; first compound 0.03162 µM)	relative viability (AT-7519 + Phenformin; first compound 0.3162 µM)	relative viability (AT-7519 + Phenformin; first compound 1 µM)	relative viability (AT-7519; 0.01 µM)	relative viability (AT-7519; 0.03162 µM)	relative viability (AT-7519; 0.3162 µM)	relative viability (AT-7519; 1 µM)	relative viability ([1]; 0.08 µM)	relative viability ([1]; 0.253 µM)	relative viability ([1]; 0.8 µM)	relative viability ([1]; 2.53 µM)	relative viability ([1]; 8 µM)	relative viability ([2]; first compound 0.08 µM)	relative viability ([2]; first compound 0.253 µM)	relative viability ([2]; first compound 0.8 µM)	relative viability ([2]; first compound 2.53 µM)	relative viability ([2]; first compound 8 µM)
NCI-H2342	0.595	0.605	0.509	0.512	0.909	0.96	0.906	0.92	0.991	0.989	0.841	1.04	0.876	–	–	–	–	–
HCC-15	0.468	0.422	0.401	0.241	1.03	0.911	0.897	0.754	1.14	1	1.03	0.97	0.963	0.754	0.693	0.692	0.693	0.705
A-427	0.233	0.315	0.238	0.222	1.11	1.02	0.944	0.723	1.05	0.971	0.936	0.963	0.842	1.06	1.04	0.83	1.12	1.02
NCI-H2228	0.298	0.305	0.193	0.165	1.15	0.926	0.936	0.591	1.31	1.03	0.907	1.01	0.957	1.09	0.801	0.953	0.577	0.874
NCI-H1734	0.385	0.342	0.323	0.175	1.06	0.918	0.782	0.562	1.12	0.981	0.951	0.92	0.996	1.13	0.86	0.784	0.877	0.884
PC-14	0.519	0.566	0.424	0.314	0.971	0.94	0.928	0.714	1.02	0.95	0.944	1.07	0.94	1.02	0.973	0.982	1.05	1.01
NCI-H1915	0.365	0.384	0.345	0.376	1.03	0.982	0.881	0.84	1.02	0.968	0.989	0.987	0.966	0.818	0.764	0.835	0.765	0.768
NCI-H1666	0.59	0.568	0.538	0.402	0.948	0.906	0.99	0.752	1.04	1.03	0.991	0.966	1.02	0.87	0.91	0.962	1.14	0.842
HCC-366	0.624	0.616	0.613	0.509	1.06	1.03	0.993	0.926	1.04	0.964	0.993	0.997	0.897	1.07	0.839	0.977	1.07	1.07
SK-MES-1	0.655	0.651	0.63	0.331	1.02	0.968	1	0.771	1.03	0.967	0.968	0.987	1.02	1.26	1.16	1.31	1.26	1.19
SW 1573	0.421	0.349	0.236	0.0778	0.988	0.84	0.753	0.312	1.11	1.03	0.944	1.01	0.815	1.01	0.971	1.03	0.964	0.977
NCI-H661	0.277	0.27	0.249	0.189	1.04	0.874	1.02	0.648	1.02	1	0.969	1.01	0.967	–	–	–	–	–
PC-3 [JPC-3]	0.471	0.474	0.45	0.484	1.01	1.02	1.01	1.03	1.04	1.03	1.04	1.06	0.997	0.888	0.748	0.854	0.722	0.725
NCI-H1623	0.583	0.567	0.668	0.557	0.982	0.934	1.05	0.773	0.925	0.995	0.953	1.06	0.852	–	–	–	–	–
Calu-6	–	–	–	–	1.06	0.943	1.11	0.593	1	1.02	0.962	1.01	1.01	0.848	0.916	0.769	0.952	0.802
LC-2-ad	0.522	0.573	0.498	0.413	0.996	0.99	1.01	0.909	1.02	0.902	0.978	0.995	0.945	0.516	0.517	0.507	0.402	0.521
